Measurements reported in patent publication US20260115250A1, “METHODS OF TREATING AGE-RELATED MACULAR DEGENERATION” (Character Biosciences, Inc., priority 2022, published 2026).
Peptide text beside a SMILES is read from it.

Experiments:
[1] = target: T1, LDLR (Homo sapiens, UniProt P01130); test: LDLR binding (SPR), high surfactant preparation; conditions: high surfactant preparation (HBS-P+), 1:1 binding model; read-out: binding KD to LDLR
Outline: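 Surface plasmon resonance with recombinant LDLR amine-coupled to a CM5 chip at 1000 RU. Peptides, 5 μM top concentration then 1:3 dilutions (5 levels) in HBS-P+ with 1 mM CaCl2, injected 120 seconds at 30 μL/sec; multi-cycle kinetics fitted to a 1:1 binding model.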
Target sequence in this assay (P01130 22-860): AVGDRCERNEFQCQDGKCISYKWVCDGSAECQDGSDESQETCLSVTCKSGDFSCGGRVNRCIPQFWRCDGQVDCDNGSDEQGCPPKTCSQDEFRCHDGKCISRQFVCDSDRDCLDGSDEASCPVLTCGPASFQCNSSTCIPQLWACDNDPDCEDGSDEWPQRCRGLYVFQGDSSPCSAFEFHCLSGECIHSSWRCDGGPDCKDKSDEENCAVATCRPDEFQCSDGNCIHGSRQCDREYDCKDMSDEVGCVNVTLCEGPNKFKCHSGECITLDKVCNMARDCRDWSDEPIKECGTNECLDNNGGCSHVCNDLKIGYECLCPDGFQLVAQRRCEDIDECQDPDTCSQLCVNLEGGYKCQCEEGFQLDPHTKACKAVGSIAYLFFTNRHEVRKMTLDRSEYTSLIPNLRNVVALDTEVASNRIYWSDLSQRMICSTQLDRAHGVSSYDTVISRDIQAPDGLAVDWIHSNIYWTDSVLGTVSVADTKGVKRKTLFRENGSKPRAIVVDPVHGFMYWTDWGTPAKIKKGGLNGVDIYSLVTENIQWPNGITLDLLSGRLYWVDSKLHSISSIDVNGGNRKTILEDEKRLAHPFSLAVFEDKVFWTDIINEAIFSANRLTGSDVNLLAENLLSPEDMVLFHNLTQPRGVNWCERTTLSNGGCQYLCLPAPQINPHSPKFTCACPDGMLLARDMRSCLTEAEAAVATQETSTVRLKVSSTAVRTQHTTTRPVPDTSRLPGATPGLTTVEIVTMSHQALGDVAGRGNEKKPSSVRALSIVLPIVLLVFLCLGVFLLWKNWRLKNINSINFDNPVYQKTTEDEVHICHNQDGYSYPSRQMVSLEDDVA

[2] = test system: ARPE-19 cells; test: ARPE-19 cell viability assay (Cell Titer Glo); assay type: cell-based, human; conditions: 100 μM peptide, 1.5 hours
Protocol: ARPE-19 cells were seeded in 96-well plates at 25,000 cells/well and allowed to adhere to the plate surface for at least 24 hours. Peptides were diluted in serum-free DMEM: F12 to a final concentration of 100 μM. Cells were washed, then incubated in 100 μM peptide solution for 1.5 hours at 37° C. Plates were brought to room temperature for 30 minutes, then washed with DPBS. Cells were incubated in a 1:1 mixture of DPBS and Cell Titer Glo 2.0 Reagent for 10 minutes at room temperature, then cell luminescence was read on a plate reader. Viability values were background corrected, and 0% viability is determined by luminescence values of cells treated with 1% Triton-X-100. Data are presented as mean+SD over two separate runs.

[3] = target: T1, LDLR; test: KD (µM)
Excerpt: Table printed on a drawing sheet, FIG. 23
Title: Buffer: HBS + 0.05% P20
Head of the field: KD (µM)
The patent's description of the figure: FIG. 23 is a table showing the binding kinetics results of LDLR binding assays (SPR), high surfactant preparation as described herein for select peptides shown in FIG. 1A-1I.
First copying reader's note: Right of three side-by-side panels of FIG. 23; the KD cells hold value ± error together.
Where the first naming reader finds the target: description_of_the_figure: FIG. 23 is a table showing the binding kinetics results of LDLR binding assays (SPR), high surfactant preparation
Target sequence in this assay (P01130 22-860 limits assumed): as the sequence (P01130 22-860) above

[4] = target: T2, ABCA1 (Mus musculus, UniProt P41233); test: membrane ABCA1 stability testing in J774 cells; assay type: cell-based, murine; conditions: 4 hours
T2 construct: endogenous in cells; host or cells: J774 murine macrophage cells, ABCA1 induced with 8-Br-cAMP and AcLDL
T2 sequence (P41233 whole entry): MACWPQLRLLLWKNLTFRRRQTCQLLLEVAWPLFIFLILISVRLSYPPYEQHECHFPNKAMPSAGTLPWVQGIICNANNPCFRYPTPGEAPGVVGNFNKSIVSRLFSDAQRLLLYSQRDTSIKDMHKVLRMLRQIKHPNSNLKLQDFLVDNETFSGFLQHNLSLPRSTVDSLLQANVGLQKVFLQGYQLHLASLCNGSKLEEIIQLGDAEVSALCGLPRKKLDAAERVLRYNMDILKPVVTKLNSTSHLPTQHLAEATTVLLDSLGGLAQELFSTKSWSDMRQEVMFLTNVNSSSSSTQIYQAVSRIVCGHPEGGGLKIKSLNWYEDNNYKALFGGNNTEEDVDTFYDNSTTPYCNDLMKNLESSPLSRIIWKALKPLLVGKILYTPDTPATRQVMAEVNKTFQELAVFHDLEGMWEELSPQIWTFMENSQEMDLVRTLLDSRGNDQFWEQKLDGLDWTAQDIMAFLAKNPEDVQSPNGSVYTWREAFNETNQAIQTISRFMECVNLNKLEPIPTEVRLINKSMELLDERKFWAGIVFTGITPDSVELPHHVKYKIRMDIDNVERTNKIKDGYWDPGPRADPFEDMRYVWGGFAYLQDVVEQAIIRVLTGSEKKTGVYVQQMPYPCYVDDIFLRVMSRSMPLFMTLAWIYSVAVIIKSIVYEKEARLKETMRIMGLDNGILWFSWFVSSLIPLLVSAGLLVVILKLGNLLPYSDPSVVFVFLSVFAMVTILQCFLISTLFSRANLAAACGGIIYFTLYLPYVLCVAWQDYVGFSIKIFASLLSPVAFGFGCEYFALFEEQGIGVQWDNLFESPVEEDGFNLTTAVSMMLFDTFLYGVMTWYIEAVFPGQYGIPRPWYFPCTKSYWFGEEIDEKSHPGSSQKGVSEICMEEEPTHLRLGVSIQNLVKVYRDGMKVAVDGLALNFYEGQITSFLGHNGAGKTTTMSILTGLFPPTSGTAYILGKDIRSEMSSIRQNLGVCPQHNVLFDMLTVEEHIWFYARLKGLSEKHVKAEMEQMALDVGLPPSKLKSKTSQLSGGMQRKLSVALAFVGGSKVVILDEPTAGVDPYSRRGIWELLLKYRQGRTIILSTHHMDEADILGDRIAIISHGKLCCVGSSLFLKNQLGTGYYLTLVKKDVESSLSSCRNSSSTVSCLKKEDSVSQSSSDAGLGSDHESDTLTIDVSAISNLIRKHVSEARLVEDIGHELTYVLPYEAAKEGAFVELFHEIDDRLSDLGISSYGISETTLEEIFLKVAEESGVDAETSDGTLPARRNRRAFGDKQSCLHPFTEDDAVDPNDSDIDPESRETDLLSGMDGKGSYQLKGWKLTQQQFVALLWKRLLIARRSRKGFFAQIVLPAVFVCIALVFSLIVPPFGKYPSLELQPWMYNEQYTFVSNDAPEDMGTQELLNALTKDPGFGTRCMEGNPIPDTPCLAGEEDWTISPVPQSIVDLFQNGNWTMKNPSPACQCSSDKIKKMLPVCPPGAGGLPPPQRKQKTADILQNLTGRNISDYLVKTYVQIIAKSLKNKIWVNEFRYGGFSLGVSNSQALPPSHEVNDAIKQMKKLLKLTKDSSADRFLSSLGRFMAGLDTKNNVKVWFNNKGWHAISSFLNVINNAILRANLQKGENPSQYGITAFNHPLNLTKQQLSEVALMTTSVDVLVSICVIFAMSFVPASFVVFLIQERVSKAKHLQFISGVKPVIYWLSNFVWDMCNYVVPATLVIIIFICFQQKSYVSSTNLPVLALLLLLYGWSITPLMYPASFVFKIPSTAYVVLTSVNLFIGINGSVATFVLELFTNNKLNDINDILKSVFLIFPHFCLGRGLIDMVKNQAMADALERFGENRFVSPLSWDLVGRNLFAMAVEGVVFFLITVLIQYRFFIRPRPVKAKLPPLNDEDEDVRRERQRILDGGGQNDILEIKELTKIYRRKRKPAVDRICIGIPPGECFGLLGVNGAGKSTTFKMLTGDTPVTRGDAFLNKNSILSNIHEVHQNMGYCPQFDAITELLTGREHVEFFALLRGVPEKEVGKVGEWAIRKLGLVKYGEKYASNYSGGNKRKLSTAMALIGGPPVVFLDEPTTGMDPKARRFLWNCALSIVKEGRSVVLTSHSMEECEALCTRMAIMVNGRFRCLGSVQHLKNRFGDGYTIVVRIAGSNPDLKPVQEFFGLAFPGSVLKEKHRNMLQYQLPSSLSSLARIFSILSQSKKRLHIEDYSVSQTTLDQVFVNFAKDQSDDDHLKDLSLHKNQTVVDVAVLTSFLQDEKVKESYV
Protocol: FIGS. 33A-33C illustrate the results of membrane ABCA1 stability testing in J774 Cells. J774 murine macrophage cells were seeded at 50,000 cells per well on 12-well plates and were allowed to grow to confluence. A vehicle solution of 0.1% BSA in serum-free DMEM was prepared for control wells. An ABCA1 induction solution of 0.1% BSA with 1 mM 8-Br-CAMP and 50 μg/mL AcLDL was prepared in serum-free DMEM and incubated on cells overnight at 37° C. to increase ABCA1 protein levels on the membrane. A solution of 10 μM peptide was prepared in serum-free DMEM and serially diluted 1:10 for 4 concentrations. ApoAI was prepared at a concentration of 300 nM. Peptides or ApoA1 were added to cells for 4 hours at 37° C. before isolating membrane protein and measuring membrane ABCA1 levels by western blot. Blots were quantified in ImageJ and the signal was normalized to membrane Na+/K+ pump levels. Signals were further normalized to the 18-hour cAMP treated group to determine percent (%) Membrane ABCA1 remaining.

Row | Kd [1] [µM] | Kd [3] [nM] | membrane ABCA1 levels after washout of 8-Br-cAMP [4] | Compound | ARPE-19 cell viability [2]
1 | < 10 | 1200 ± 90 | – | CC(C)C[C@H](NC(=O)[C@H](CC(=O)O)NC(=O)[C@H](CCCCN)NC(=O)CNC(=O)[C@H](Cc1ccc(O)cc1)NC(=O)[C@H](CC(=O)O)NC(=O)[C@@H](NC(=O)[C@@H](NC(=O)[C@@H](NC(=O)[C@H](CCC(N)=O)NC(=O)[C@H](Cc1ccccc1)NC(=O)[C@H](Cc1ccc(O)cc1)NC(=O)[C@H](CCC(N)=O)NC(=O)[C@H](CO)NC(=O)[C@@H](NC(=O)[C@H](CC(C)C)NC(=O)[C@H](CO)NC(=O)[C@H](CCCNC(=N)N)NC(=O)[C@H](CC(C)C)NC(=O)[C@H](CC(C)C)NC(=O)[C@H](CCCNC(=N)N)NC(=O)[C@H](CCCCN)NC(=O)[C@H](CCCNC(=N)N)NC(=O)[C@H](CC(C)C)NC(=O)[C@H](CCCCN)NC(=O)[C@H](CCCNC(=N)N)NC(=O)[C@H](CC(C)C)NC(=O)[C@@H](N)Cc1c[nH]cn1)C(C)C)[C@@H](C)O)C(C)C)[C@@H](C)O)C(=O)O [T-109] (H-HLRKLRKRLLRSLVSQYFQTVTDYGKDL-OH) | substantial change in viability
2 | – | – | preserved membrane ABCA1 levels | ApoA1: positive control protein ApoA1 (apolipoprotein A1) | –
